From patent US7872027B2, “Low molecular weight Myc-max inhibitors” (University of Pittsburgh - Of the Commonwealth System of …, priority 2006, dated 2011)

Key:
[1] = target: T1, c-Myc-Max complexes (Homo sapiens, UniProt P01106); test: co-immunoprecipitation of c-Myc and Max from HL60 nuclear extracts; format: biochemical; details: 30° C. for 30 min
T1 construct: endogenous in cells; host or cells: HL60 nuclear extract
Protocol: (§1) Equivalent amounts of nuclear extracts were incubated with the indicated concentrations of the compounds depicted in FIGS. 1-3. Following precipitation of the complexes with an anti-Max antibody, the total amount of associated c-Myc was detected by immunoblotting (top panel). As a control, the lower portion of the blot was probed with an anti-Max antibody (bottom panel). FIGS. 4B, 4C and 4D show EMSAs results. Recombinant c-Myc353-439 (which encodes the complete bHLH-ZIP dimerization domain) and full-length Max(S) were purified to homogeneity from E. coli and used at a final concentration of 60 nM in the presence of the indicated concentration of compound.
Nuclei from HL60 cells were prepared essentially as described previously (17). Briefly, approximately 4×10^7 washed nuclei were resuspended in 1 ml of ice cold buffer F, which contained 150 mM NaCl; 10 mM Tris-HCl, pH 7.1; 30 mM sodium pyrophosphate; 5 μM ZnCl2; 0.1% Nonidet P-40; 0.1 mM Na3VO4; 1 mM PMSF; 2.5 U/ml each of pepstatin, leupeptin, and approtinin. All reagents were from Sigma-Aldrich (St. Louis, Mo.). […]
10058-F4 analogs interfere directly with c-Myc-Max heterodimerization and DNA binding. […] To address this, the effect of each compound on c-Myc-Max association was determined in vitro by two different methods. […] The total amount of co-precipitating c-Myc protein was then assessed by immunoblotting. […]

[2] = target: T2, c-Myc-Max(S) heterodimer (Homo sapiens, UniProt P01106); test: electrophoretic mobility shift assay (EMSA), E-box DNA binding; format: biochemical; details: 60 nM each protein, 10 nM oligonucleotide
T2 construct: human Myc residues 353-439 with a GGCD extension at the C terminus; His6 (TEV-cleavable) (cleaved yes); made in house; host or cells: E. coli BL21DE3(plysS) for c-Myc; E. coli M15(pRep4) for Max
Protocol: as §1
Electrophoretic mobility shift Assays (EMSAs). Experiments were performed on 8% polyacrylamide:bis-acrylamide (80:1) gels in 0.5×TBE. […]
and was synthesized by Integrated DNA Technologies Inc (Coralville, Iowa). […] Data were analyzed with BioRad Quantity One software.
The second method used to gauge the effects of 10058-F4 and its analogs on c-Myc-Max complexes relied on the use of a simple, three component electrophoretic mobility shift assay (EMSA). […] The ability of the resultant heterodimer to bind a double-stranded target oligonucleotide containing a consensus E-box motif was then assessed by PAGE. […]

[3] = system: HL60 human promyelocytic leukemia cells; test: HL60 cell growth inhibition (trypan blue cell counts); format: cell-based
Protocol: Note that all structures shown herein are drawn in their Z-isoform and some bonds have been standardized. IC50's here, as well as below for in FIGS. 2 and 3, were calculated based upon dose-response profiles on day 5 following the addition of each compound.
HL60 human promyelocytic leukemia cells were grown in RPMI medium supplemented with 10% fetal calf serum, 100 U/ml penicillin G, and 100 μg/ml streptomycin (all from Mediatech, Inc., Herndon, Va.). Rat fibroblast lines were grown under similar conditions in Dulbecco's modified minimal essential medium. To determine the effects of Myc-Max compounds on HL60 cell growth, logarithmically growing cells (>90% viability) were resuspended in fresh medium. Four (4) ml (a total of 16,000 cells) were then seeded into 6-well plates in the presence of the indicated amount of Myc-Max compound. In all cases, 10058-F4 was included as a reference compound. Daily cell counts were performed manually in triplicate on a hemacytometer using trypan blue exclusion. Viabilities exceeded 85% throughout the course of the experiment.
Each compound was initially tested for its ability to inhibit the growth of the HL60 human promyelocytic leukemia cell line, which expresses high levels of c-Myc as a result of gene amplification (Park S—H, et al. Methods Mol Biol 2004; 261:161-165 (2004)). […]

T2 sequence (P01106 368-454, one chain of several): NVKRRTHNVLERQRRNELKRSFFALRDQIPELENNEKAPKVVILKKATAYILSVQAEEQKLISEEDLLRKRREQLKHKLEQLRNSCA
T1 sequence (P01106 whole entry, one chain of several): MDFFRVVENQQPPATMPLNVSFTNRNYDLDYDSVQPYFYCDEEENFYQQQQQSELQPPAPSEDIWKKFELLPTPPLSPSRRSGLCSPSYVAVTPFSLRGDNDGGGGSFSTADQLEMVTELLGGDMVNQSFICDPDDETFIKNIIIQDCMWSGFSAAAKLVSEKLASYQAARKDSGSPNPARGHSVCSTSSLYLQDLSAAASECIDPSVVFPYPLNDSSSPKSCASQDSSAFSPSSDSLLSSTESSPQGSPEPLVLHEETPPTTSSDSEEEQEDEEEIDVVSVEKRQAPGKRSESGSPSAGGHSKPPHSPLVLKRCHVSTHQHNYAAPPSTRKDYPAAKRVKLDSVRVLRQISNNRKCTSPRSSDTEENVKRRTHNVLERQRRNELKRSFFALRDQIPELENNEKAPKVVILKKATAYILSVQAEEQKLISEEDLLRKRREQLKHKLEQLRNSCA

Compound | dissociation of c-Myc from Max (co-IP with anti-Max antibody) [1] | inhibition of E-box DNA binding by c-Myc-Max(S) [2] | IC50 ([3]; Homo sapiens, HL-60, 120 h, dose-response profiles on day 5 following addition of compound, read-out: ID50, HL60 cell growth) | activity in HL60 cells compared with 10058-F4 ([3]; 10058-F4 in parallel)
CCc1ccc(C=C2SC(=S)NC2=O)cc1 [Compound 10058-F4, (Z,E)-5-(4-ethylbenzylidene)-2-thioxothiazolidin-4-one] | promoted the dissociation of c-Myc from Max | dose-dependent, although variable, inhibition | 51 µM | 
CC(C)c1ccc(/C=C2\SC(=S)N(CN3CCCCC3)C2=O)cc1 [Compound 28RH-NCN-1] |  |  |  | activities comparable to that of 10058-F4
